molecular target: T1, Ba/F3 cell EGFR Exon20 ins NPH (Homo sapiens, UniProt P00533, INS773NPH); experiment: Ba/F3 cell proliferation suppression, EGFR Exon20 ins NPH; type: cell-based; settings: GI50 class; Ba/F3 cell line with NPH inserted at Exon20 of EGFR; 72 hours
T1 construct: expressed in transfected cells; host or cells: Ba/F3
Procedure: The following experiment was carried out to evaluate the suppression activity of the compounds according to the present invention against proliferation of Ba/F3 and lung cancer cells which express EGFR mutations.
Of the cancer cell lines expressing the EGFR gene, A549 was cultured after adding 10% FBS (HyClone) to DMEM (Invitrogen), and RPMI-1640 (Invitrogen) with 10% FBS was used for the other cancer cells. For the Ba/F3 cells, RPMI-1640 with 10% FBS and 5 ng/ml IL-3 (R&D Systems) was used. The transduced Ba/F3 cells were cultured by adding 1 ug/ml puromycin (Invitrogen) to the same medium.
24 hours before treatment with the compounds, 3000 to 5000 cells were distributed into each well of a white clear bottom 96 well plate (Corning). The compounds were diluted in dimethylsulfoxide (dilution ratio 3:1; 12 concentrations total) and injected 0.5 ul each for a final concentration of 0.3 nM to 50 um. As for measurement of live cells, 72 hours after treatment with the compounds, a CellTiter-Glo luminescent cell-viability reagent (Promega) was used to store the cells at room temperature for 10 minutes, followed by measurement of luminescence using a reader (SynergyNeo, Biotek). Each test was repeated three times.
The result was calculated as a cell growth ratio (%) compared to a control. The program GraphPad Prism version 5.0 was used to draw the graphs and calculate the GI50 values.

Ba/F3 (NPH) Activity	Compound
B (50 nM ≤ GI50 < 500 nM)	C=CC(=O)Nc1cc(Nc2cc(N3OCC[C@@H]3c3cccc4ccccc34)ncn2)c(OC)cc1N1CCC(N2CCN(C3CCC3)CC2)CC1 [Example 184, N-(2-(4-(4-cyclobutylpiperazine-1-yl)piperidine-1-yl)-4-methoxy-5-((6-((R)-3-(naphthalene-1-yl)isoxazolidine-2-yl)pyrimidine-4-yl)amino)phenyl)acrylamide]
A (GI50 < 50 nM)	C=CC(=O)Nc1cc(Nc2cc(N3OCC[C@@H]3c3cc(F)cc(F)c3)ncn2)c(OC)cc1N1CCC(N2C[C@H]3CCN(C)[C@H]3C2)CC1 [compound 445, N-(5-((6-((R)-3-(3,5-difluorophenyl)isoxazolidine-2-yl)pyrimidine-4-yl)amino)-4-methoxy-2-(4-((3aR,6aR)-1-methylhexahydropyrrolo [3,4-b]pyrrole-5(1H)-yl)piperidine-1-yl)phenyl)acrylamide]
A (GI50 < 50 nM)	C=CCN1CCN(C2CCN(c3cc(OC)c(Nc4cc(N5OCC[C@@H]5c5cc(F)ccc5F)ncn4)cc3NC(=O)C=C)CC2)CC1 [Example 88, N-(2-(4-(4-allylpiperazine-1-yl)piperidine-1-yl)-5-((6-((R)-3-(2,5-difluorophenyl)isoxazolidine-2-yl)pyrimidine-4-yl)amino)-4-methoxyphenyl) acrylamide]
A (GI50 < 50 nM)	C=CC(=O)Nc1cc(Nc2cc(N3OCC[C@@H]3c3cccc(Cl)c3C)ncn2)c(OC)cc1N1CCC(N2CCN(C3CC3)[C@@H](C)C2)CC1 [Example 153, N-(5-((6-((R)-3-(3-chloro-2-methylphenyl)isoxazolidine-2-yl)pyrimidine-4-yl)amino)-2-(4-((S)-4-cyclopropyl-3-methylpiperazine-1-yl)piperidine-1-yl)-4-methoxyphenyl) acrylamide]
A (GI50 < 50 nM)	C=CC(=O)Nc1cc(Nc2cc(N3OCC[C@@H]3c3ccccc3)ncn2)c(OC)cc1N1CCC(N2CCN(C(C)C)CC2)CC1 [Example 283, N-(2-(4-(4-isopropylpiperazine-1-yl)piperidine-1-yl)-4-methoxy-5-((6-((R)-3-phenylisoxazolidine-2-yl)pyrimidine-4-yl)amino)phenyl) acrylamide]
A (GI50 < 50 nM)	C=CC(=O)Nc1cc(Nc2cc(N3OCC[C@@H]3Cc3ccccc3)ncn2)c(OC)cc1N1CC2CC1CN2C (stereo partly drawn) [compound 969, N-(5-((6-((S)-3-benzylisoxazolidine-2-yl)pyrimidine-4-yl)amino)-4-methoxy-2-(5-methyl-2,5-diazabicyclo[2.2.1]heptane-2-yl)phenyl) acrylamide]
A (GI50 < 50 nM)	C=CC(=O)Nc1cc(Nc2cc(N3OCC[C@@H]3c3ccc(F)cc3F)ncn2)c(OC)cc1N1CCN(C2CC2)[C@@H](C)C1 [compound 479, N-(2-((S)-4-cyclopropyl-3-methylpiperazine-1-yl)-5-((6-((R)-3-(2,4-difluorophenyl)isoxazolidine-2-yl)pyrimidine-4-yl)amino)-4-methoxyphenyl) acrylamide]
B (50 nM ≤ GI50 < 500 nM)	C=CC(=O)Nc1cc(Nc2cc(N3OCC[C@@H]3c3ccc(Cl)c(F)c3)ncn2)c(OC)cc1N(C)CCOC [compound 853, N-(5-((6-((R)-3-(4-chloro-3-fluorophenyl)isoxazolidine-2-yl)pyrimidine-4-yl)amino)-4-methoxy-2-((2-methoxyethyl)(methyl)amino)phenyl) acrylamide]
A (GI50 < 50 nM)	C=CC(=O)Nc1cc(Nc2cc(N3OCC[C@@H]3c3ccc(F)c(Cl)c3F)ncn2)c(OC)cc1N1CCN(CC)CC1 [compound 600, N-(5-((6-((R)-3-(3-chloro-2,4-difluorophenyl)isoxazolidine-2-yl)pyrimidine-4-yl)amino)-2-(4-ethylpiperazine1-yl)-4-methoxyphenyl) acrylamide]
A (GI50 < 50 nM)	C=CC(=O)Nc1cc(Nc2cc(N3OCC[C@@H]3c3ccc(Cl)cc3F)ncn2)c(OC)cc1N1CCN(CC)CC1 [compound 401, N-(5-((6-((R)-3-(4-chloro-2-fluorophenyl)isoxazolidine-2-yl)pyrimidine-4-yl)amino)-2-(4-ethylpiperazine-1-yl)-4-methoxyphenyl) acrylamide]
A (GI50 < 50 nM)	C=CC(=O)Nc1cc(Nc2cc(N3OCC[C@@H]3c3cccc(Cl)c3F)ncn2)c(OC)cc1N1CCC(N2C[C@@H](C)O[C@@H](C)C2)CC1 [compound 706, N-(5-((6-((R)-3-(3-chloro-2-fluorophenyl)isoxazolidine-2-yl)pyrimidine-4-yl)amino)-2-(4-((2S,6R)-2,6-dimethylmorpholino)piperidine-1-yl)-4-methoxyphenyl) acrylamide]
A (GI50 < 50 nM)	C=CC(=O)Nc1cc(Nc2cc(N3OCC[C@@H]3c3ccccc3)ncn2)c(OC)cc1N1C[C@H]2C[C@@H]1CO2 [Example 33, N-(2-((1R,4R)-2-oxa-5-azabicyclo [2.2.1]heptane-5-yl)-4-methoxy-5-((6((R)-3-phenylisoxazolidine-2-yl)pyrimidine-4-yl)amino)phenyl) acrylamide]
A (GI50 < 50 nM)	C=CC(=O)Nc1cc(Nc2cc(N3OCC[C@@H]3c3cc(F)cc(Cl)c3)ncn2)c(OC)cc1N1CCC(N2C[C@@H](C)O[C@@H](C)C2)CC1 [compound 594, N-(5-((6-((R)-3-(3-chloro-5-fluorophenyl)isoxazolidine-2-yl)pyrimidine-4-yl)amino)-2-(4-((2S,6R)-2,6-dimethylmorpholino)piperidine-1-yl)-4-methoxyphenyl) acrylamide]
C (500 nM ≤ GI50 < 5000 nM)	C=CC(=O)Nc1cc(Nc2cc(N3OCC[C@@H]3c3ccc4ccccc4c3)ncn2)c(OC)cc1N1C[C@@H](C)O[C@@H](C)C1 [compound 664, N-(2-((2S,6R)-2,6-dimethylmorpholino)-4-methoxy-5-((6-((R)-3-(naphthalene-2-yl)isoxazolidine-2-yl)pyrimidine-4-yl)amino)phenyl)acrylamide]
A (GI50 < 50 nM)	C=CC(=O)Nc1cc(Nc2cc(N3OCC[C@@H]3Cc3cccc(F)c3Cl)ncn2)c(OC)cc1N1CCC(N2CCN(C3CC3)[C@H](C)C2)CC1 [compound 1036, N-(5-((6-((S)-3-(2-chloro-3-fluorobenzyl)isoxazolidine-2-yl)pyrimidine-4-yl)amino)-2-(4-((R)-4-cyclopropyl-3-methylpiperazine-1-yl)piperidine-1-yl)-4-methoxyphenyl) acrylamide]
A (GI50 < 50 nM)	C#Cc1cccc([C@H]2CCON2c2cc(Nc3cc(NC(=O)C=C)c(N4CC[C@@H](N(C)C)C4)cc3OC)ncn2)c1 [compound 653, N-(2-((R)-3-(dimethylamino)pyrolidine-1-yl)-5-((6-((R)-3-(3-ethynylphenyl)isoxazolidine-2-yl)pyrimidine-4-yl)amino)-4-methoxyphenyl) acrylamide]
A (GI50 < 50 nM)	C=CC(=O)Nc1cc(Nc2cc(N3OCC[C@@H]3c3cccc(F)c3F)ncn2)c(OC)cc1N1CCC(N2CCN(C3CC3)[C@@H](C)C2)CC1 [Example 175, N-(2-(4-((S)-4-cyclopropyl-3-methylpiperazine-1-yl)piperidine-1-yl)-5-((6-((R)-3-(2,3-difluorophenyl)isoxazolidine-2-yl)pyrimidine-4-yl)amino)-4-methoxyphenyl) acrylamide]
A (GI50 < 50 nM)	C=CC(=O)Nc1cc(Nc2cc(N3OCC[C@@H]3c3ccc(F)cc3)ncn2)c(OC)cc1N(C)CCN(C)C [Example 39, N-(2-((2-(dimethylamino)ethyl)(methyl)amino)-5-((6-((R)-3-(4-fluorophenyl)isoxazolidine-2-yl)pyrimidine-4-yl)amino)-4-methoxyphenyl) acrylamide]
A (GI50 < 50 nM)	C=CC(=O)Nc1cc(Nc2cc(N3OCC[C@@H]3c3cc(F)ccc3F)ncn2)c(OC)cc1N1CCC(N2C[C@@H](C)N(CC)[C@@H](C)C2)CC1 [compound 841, N-(5-((6-((R)-3-(2,5-difluorophenyl)isoxazolidine-2-yl)pyrimidine-4-yl)amino)-2-(4-((3S,5R)-4-ethyl-3,5-dimethylpiperazine-1-yl)piperidine-1-yl)-4-methoxyphenyl) acrylamide]
A (GI50 < 50 nM)	C=CC(=O)Nc1cc(Nc2cc(N3OCC[C@@H]3Cc3cccc(Cl)c3F)ncn2)c(OC)cc1N1CCC(N2C[C@H]3C[C@@H]2CO3)CC1 [compound 1021, N-(2-(4-((1R,4R)-2-oxa-5-azabicyclo [2.2.1]heptane-5-yl)piperidine-1-yl)-5-((6-((S)-3-(3-chloro-2-fluorobenzyl)isoxazolidine-2-yl)pyrimidine-4-yl)amino)-4-methoxyphenyl) acrylamide]
A (GI50 < 50 nM)	C=CC(=O)Nc1cc(Nc2cc(N3OCC[C@@H]3c3cc(F)cc(Cl)c3F)ncn2)c(OC)cc1N1CCC(N2CCN(C3CC3)CC2)CC1 [compound 938, N-(5-((6-((R)-3-(3-chloro-2,5-difluorophenyl)isoxazolidine-2-yl)pyrimidine-4-yl)amino)-2-(4-(4-cyclopropylpiperazine-1-yl)piperidine-1-yl)-4-methoxyphenyl) acrylamide]
